Assay results published in patent publication US10544130B2, “Metallo-beta-lactamase inhibitors” (priority 2015, dated 2020).
Where a name gives a salt, the structure may show the parent alone. Read-outs that look alike come from different tables or passages of the source.

Experiments:
[1] = system: Serratia marcescens expressing IMP-1 (CL5741); format: cell-based; conditions: with imipenem 1 μg/ml; 95% inhibition of bacterial growth
Method in brief: (§1)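 Clinical strains were grown overnight at 35 °C on blood agar, adjusted to set OD600 in saline and diluted 1:100 into 1.1× CAMHB. Inhibitor was tested with and without imipenem at 1 μg/ml. After 22–24 h at 35 °C, absorbance was read to give synergistic concentration.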

[2] = system: Klebsiella pneumoniae expressing VIM-1 (IHMA599644); format: cell-based; conditions: with imipenem 1 μg/ml; 95% inhibition of bacterial growth
Method in brief: as §1

[3] = system: Escherichia coli expressing NDM-1 (CLB30005, CLB30016); format: cell-based; conditions: with imipenem 1 μg/ml; 95% inhibition of bacterial growth
Method in brief: as §1

[4] = system: Pseudomonas aeruginosa PAO1 MB9798 (efflux+, IMP-1); conditions: imipenem at 2 μg/mL
Method in brief: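 Isogenic PAO1 pair (efflux+ MB9798, efflux− MB9799, both IMP-1) tested by microbroth MIC with fixed imipenem and/or ceftazidime, usually at CLSI breakpoint, plus fixed class A/C inhibitor against AmpC. MBL inhibitor titrated; concentration restoring susceptibility recorded and fold difference between strains taken as efflux extent.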

[5] = ratio MITC95 PA 9798/MITC95 PA 9799

C[C@@H](N)CNS(=O)(=O)c1ccc(-c2cccc3sc(N)nc23)c(-c2nn[nH]n2)c1S(N)(=O)=O [Example 390, 4-(2-amino-1,3-benzothiazol-4-yl)-N^1-[(2R)-2-aminopropyl]-3-(2H-tetrazol-5-yl)benzene-1,2-disulfonamide]
Serratia marcescens (IMP-1) MITC95 [1]: 1.563 µM | Klebsiella pneumoniae (VIM-1) MITC95 [2]: 3.125 µM | Escherichia coli (NDM-1) MITC95 [3]: 3.125 µM

NC[C@@H](O)CNS(=O)(=O)c1ccc(-c2ccnc(N)c2)c(-c2nn[nH]n2)c1S(N)(=O)=O [Example 419, (R)-N^1-(3-amino-2-hydroxypropyl)-4-(2-aminopyridin-4-yl)-3-(2H-tetrazol-5-yl)benzene-1,2-disulfonamide]
Serratia marcescens (IMP-1) MITC95 [1]: 0.7813 µM | Klebsiella pneumoniae (VIM-1) MITC95 [2]: 1.563 µM | Escherichia coli (NDM-1) MITC95 [3]: 0.1953 µM

NC[C@]1(NS(=O)(=O)c2ccc(-c3ccc(N)nc3)c(-c3nn[nH]n3)c2S(N)(=O)=O)CCNC1 [Example 486, (R)-N1-(3-(aminomethyl)pyrrolidin-3-yl)-4-(6-aminopyridin-3-yl)-3-(2H-tetrazol-5-yl)benzene-1,2-disulfonamide dihydrochloride]
Efflux ratio ([4]; fold difference between efflux + (MB9798) and efflux − (MB9799) strains): 2.00 | Klebsiella pneumoniae (VIM-1) MITC95 [2]: 1.563 µM | Escherichia coli (NDM-1) MITC95 [3]: 0.7813 µM

NCCNS(=O)(=O)c1ccc(-c2ccc3nccn3c2)c(-c2nn[nH]n2)c1S(N)(=O)=O [Example 401, N^1-(2-aminoethyl)-4-(imidazo[1,2-a]pyridin-6-yl)-3-(2H-tetrazol-5-yl)benzene-1,2-disulfonamide]
Klebsiella pneumoniae (VIM-1) MITC95 [2]: 1.563 µM | Escherichia coli (NDM-1) MITC95 [3]: 0.7813 µM

NCc1nc2c(-c3ccc(S(=O)(=O)N[C@H](CN)CO)c(S(N)(=O)=O)c3-c3nn[nH]n3)cccc2s1 [Example 363, (R)—N1-(1-amino-3-hydroxypropan-2-yl)-4-(2-(aminomethyl)benzo[d]thiazol-4-yl)-3-(2H-tetrazol-5-yl)benzene-1,2-disulfonamide]
Efflux ratio [4, 5]: 4.00 | Klebsiella pneumoniae (VIM-1) MITC95 [2]: 3.125 µM | Escherichia coli (NDM-1) MITC95 [3]: 3.125 µM

NCc1nc2c(-c3ccc(S(=O)(=O)N[C@@H]4CCNC4)c(S(N)(=O)=O)c3-c3nn[nH]n3)cccc2s1 [Example 276, (R)-4-(2-(aminomethyl)benzo[d]thiazol-4-yl)-N1-(pyrrolidin-3-yl)-3-(2H-tetrazol-5-yl)benzene-1,2-disulfonamide]
Efflux ratio [4, 5]: 1.00 | Serratia marcescens (IMP-1) MITC95 [1]: 0.7813 µM | Klebsiella pneumoniae (VIM-1) MITC95 [2]: 0.7813 µM

NC[C@@H](CO)NS(=O)(=O)c1ccc(-c2ccnc(N)c2)c(-c2nn[nH]n2)c1S(N)(=O)=O [Example 380, (S)—N1-(1-amino-3-hydroxypropan-2-yl)-4-(2-aminopyridin-4-yl)-3-(2H-tetrazol-5-yl)benzene-1,2-disulfonamide]
Efflux ratio [4, 5]: 1.00 | Serratia marcescens (IMP-1) MITC95 [1]: 0.7813 µM | Klebsiella pneumoniae (VIM-1) MITC95 [2]: 1.563 µM

Nc1ccc(-c2ccc(S(=O)(=O)NC[C@H](N)CO)c(S(N)(=O)=O)c2-c2nn[nH]n2)cn1 [Example 297, (S)—N^1-(2-amino-3-hydroxypropyl)-4-(6-aminopyridin-3-yl)-3-(2H-tetrazol-5-yl) benzene-1,2-disulfonamide]
Efflux ratio [4, 5]: 1.00 | Serratia marcescens (IMP-1) MITC95 [1]: 0.7813 µM | Klebsiella pneumoniae (VIM-1) MITC95 [2]: 1.563 µM

CN(C1CNC1)S(=O)(=O)c1ccc(-c2cccc3[nH]c(N)nc23)c(-c2nn[nH]n2)c1S(N)(=O)=O [Example 255, 4-(2-amino-1H-benzo[d]imidazol-4-yl)-N1-(azetidin-3-yl)-N1-methyl-3-(2H-tetrazol-5-yl)benzene-1,2-disulfonamide]
Efflux ratio [4, 5]: 2.00 | Serratia marcescens (IMP-1) MITC95 [1]: 0.7813 µM | Klebsiella pneumoniae (VIM-1) MITC95 [2]: 0.7813 µM

Nc1nc2c(-c3ccc(S(=O)(=O)NC[C@@H]4CCCN4)c(S(N)(=O)=O)c3-c3nn[nH]n3)cccc2[nH]1 [Example 262, (S)-4-(2-amino-1H-benzo[d]imidazol-4-yl)-N1-(pyrrolidin-2-ylmethyl)-3-(2H-tetrazol-5-yl)benzene-1,2-disulfonamide]
Efflux ratio [4, 5]: 1.00 | Serratia marcescens (IMP-1) MITC95 [1]: 0.7813 µM | Klebsiella pneumoniae (VIM-1) MITC95 [2]: 0.7813 µM
